Results taken from PubChem BioAssay (NCI).
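Step 1: Grow cells in 96-well plates. Step 2: Expose to compound for 48 hours at 5 concentrations. Step 3: Interpolate endpoints linearly; if unreached, use highest concentration. GI50 marks 50% less growth. Definition used: TGI = concentration required for complete inhibition of growth.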

Columns and labels:
Experiment in all cases: NCI tumour cell line growth inhibition, 48 h
U251 CNS = tested on: U251 CNS
SNB-19 CNS = tested on: SNB-19 CNS
SR leukemia = tested on: SR leukemia
SK-MEL-5 melanoma = tested on: SK-MEL-5 melanoma
HL-60(TB) leukemia = tested on: HL-60(TB) leukemia
SF-295 CNS = tested on: SF-295 CNS
SNB-75 CNS = tested on: SNB-75 CNS
OVCAR-5 ovarian = tested on: OVCAR-5 ovarian
NCI/ADR-RES ovarian = tested on: NCI/ADR-RES ovarian
A498 renal = tested on: A498 renal

Compound | TGI (U251 CNS) [µM] | TGI (SNB-19 CNS) [µM] | TGI (SR leukemia) [µM] | TGI (SK-MEL-5 melanoma) [µM] | TGI (HL-60(TB) leukemia) [µM] | TGI (SF-295 CNS) [µM] | TGI (SNB-75 CNS) [µM] | TGI (OVCAR-5 ovarian) [µM] | GI50 (U251 CNS) [µM] | GI50 (NCI/ADR-RES ovarian) [µM] | TGI (NCI/ADR-RES ovarian) [µM] | GI50 (SNB-19 CNS) [µM] | GI50 (SR leukemia) [µM] | GI50 (SK-MEL-5 melanoma) [µM] | GI50 (SF-295 CNS) [µM] | GI50 (SNB-75 CNS) [µM] | GI50 (OVCAR-5 ovarian) [µM] | TGI (A498 renal) [µM] | GI50 (HL-60(TB) leukemia) [µM] | GI50 (A498 renal) [µM]
CNC(=O)OCc1cc2ccncc2c2c1[nH]c1ccccc12 | > 100 | > 100 | > 33.2 | > 100 | > 100 | > 100 | > 80.3 | > 100 | – | – | – | – | – | – | – | – | – | – | – | –
Cc1cccc2c1ccc1c3occ(C)c3c(=O)oc21 | > 100 | > 100 | > 100 | > 100 | – | > 100 | > 100 | > 100 | > 100 | > 100 | > 100 | > 100 | > 100 | > 100 | > 100 | 45.7 | > 100 | – | – | –
CC1OC(n2cc(I)c(=O)[nH]c2=O)C=CC1=O (stereo not given) | 27.6 | 32.1 | 32.2 | 29.5 | 24.6 | 32.5 | 31.1 | 39.7 | – | – | – | – | – | – | – | – | – | 29.6 | – | –
COc1ccc2cc(C(=O)/C=C/c3ccco3)ccc2c1 | 97.4 | > 100 | 68.2 | 31.1 | 83.3 | > 100 | > 100 | – | 28.5 | 23.8 | 63.8 | > 100 | 16.2 | 12.2 | 38.8 | > 100 | – | – | 24.6 | –
COc1cc2c3c(c1OCc1ccccc1)NCCC3NCC2 (stereo not given) | > 100 | > 100 | > 100 | > 100 | > 100 | > 100 | > 100 | > 100 | – | – | – | – | – | – | – | – | – | > 100 | – | –
Cc1[nH]c2ccccc2c1C1=CC(=O)C=CC1=O | 31.4 | 41.6 | – | 25.3 | – | 41 | 34.7 | 32.8 | 14.8 | 10.9 | 28.4 | 16.6 | – | 12 | 16.4 | 9.19 | 17.7 | 40 | – | 14.5
COCO[C@@H]1CC2C=Nc3cc(OCc4ccccc4)c(OC)cc3C(=O)N2C1 (stereo not given in full) | 14.1 | 44.6 | – | 0.908 | > 100 | 12.1 | – | 5.79 | 0.508 | 0.703 | 6.39 | 1.06 | – | 0.357 | 0.559 | 1.09 | 0.765 | 3.25 | 0.486 | 0.976
CNc1ccc(C(=O)CC(O)CCC(C)C2OC(=O)CC(O)CC(=O)CC(O)CC(O)CC(O)CC(O)CC3(O)CC(O)C(C(=O)NCCc4ccccn4)C(CC(OC4OC(C)C(O)C(N)C4O)/C=C/C=C/C=C/C=C\C=C/C=C/C=C/C2C)O3)cc1 (stereo not given) | > 40.3 | > 50 | – | 0.447 | 30.2 | 11.4 | > 50 | 2.02 | 2.11 | – | – | 14.8 | – | 0.157 | 1.05 | > 50 | 0.323 | 0.464 | 5.01 | 0.136
NC(=O)OCC(COc1ccc(Cl)cc1)OC(=O)c1cc([N+](=O)[O-])cc([N+](=O)[O-])c1 (stereo not given) | > 100 | > 100 | > 100 | > 100 | > 100 | > 100 | > 100 | > 100 | – | – | – | – | – | – | – | – | – | > 100 | – | –
O=[N+]([O-])c1cc([N+](=O)[O-])c(C(Cl)C(Cl)c2ccccc2)cc1C(Cl)C(Cl)c1ccccc1 (stereo not given) | 3.26 | 6.53 | > 100 | 3.29 | > 100 | 5.17 | 5.17 | 4.43 | – | – | – | – | – | – | – | – | – | 3.33 | – | –
CCOC(=O)NN(C(=O)OCC)C(C(=O)c1ccc(Cl)cc1)=C1NCCN1 | > 100 | > 100 | > 100 | > 100 | > 100 | > 100 | > 100 | > 100 | – | – | – | – | – | – | – | – | – | > 100 | – | –
O=C(NCCCCCCNC(=O)NC1OCC(O)C(O)C1O)NC1OCC(O)C(O)C1O (stereo not given) | > 100 | – | > 100 | > 100 | > 100 | > 100 | > 100 | > 100 | – | – | – | – | – | – | – | – | – | – | – | –
CO[C@]12CCC(=O)N1C=Cc1c2[nH]c2ccccc12 | – | > 100 | > 100 | > 100 | > 100 | > 100 | > 100 | > 100 | – | – | – | – | – | – | – | – | – | > 100 | – | –
CC(C)N(C(=O)C12C3C4C5C3C1(C#N)C5C42)C(C)C (stereo not given) | > 100 | > 100 | > 100 | > 100 | > 100 | > 100 | > 100 | > 100 | – | – | – | – | – | – | – | – | – | > 100 | – | –
N#CC(C(=O)C(=O)Nc1ccc(Cl)c(Cl)c1)c1ccc(Cl)cc1 (stereo not given) | > 100 | > 100 | > 100 | > 100 | > 100 | > 100 | > 100 | > 100 | – | – | – | – | – | – | – | – | – | > 100 | – | –
CC(=O)OCc1c(C)c2ccccc2n1C(C)=O | > 100 | > 100 | 76.1 | > 100 | 66.9 | > 100 | > 100 | > 100 | – | – | – | – | – | – | – | – | – | > 100 | – | –
CN1CCc2cc(O)c3cc2C1Cc1ccc(cc1)Oc1cc(ccc1O)CC1c2c(cc4c(c2O3)OCO4)CCN1C (stereo not given) | > 100 | > 100 | > 100 | 33.1 | 38.8 | 43.6 | 39.4 | 87.7 | – | – | – | – | – | – | – | – | – | – | – | –
Cc1csc(-c2ccc3c(c2)COC3(CCCN(C)C)c2ccc(F)cc2)c1 (stereo not given) | 3.76 | 3.31 | – | 3.26 | 4.27 | 3.52 | 2.61 | 3.05 | 1.85 | 1.81 | 3.44 | 1.75 | – | 1.82 | 1.84 | 1.2 | 1.63 | – | 1.97 | –
CN/N=C(/CC(=O)c1sc(-n2nc(-c3ccccc3)cc2-c2ccccc2)nc1C)C(=O)Nc1ccc(Cl)c(Cl)c1 | > 100 | > 100 | > 100 | > 100 | – | > 100 | – | 69.6 | – | – | – | – | – | – | – | – | – | > 100 | – | –
CCOC1=C2C(C)(CCC3[C@@]4(C)C=CC(=O)C(C)(C)C4CC(O)[C@@]23C)C(c2ccoc2)C1=O (stereo not given in full) | 34.8 | > 100 | – | 29.5 | 36.3 | 46.5 | > 100 | 36 | – | – | – | – | – | – | – | – | – | 33.9 | – | –
